Measurements from ChEMBL document CHEMBL1201862, “PubChem BioAssay data set” (2004).
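Grown in 96-well plates, cells were treated for 48 hours with each compound at five concentrations. Insufficient inhibition: endpoint recorded as highest concentration tested. GI50 marks 50% less growth.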 Activity calls are given as the source filed them. Cut-off read from the data, not from the text of the source: active = GI50 up to about 1.1 µM and inactive = higher.

Assays:
Experiment in all cases: NCI anticancer screen, dose series, 48 h
[1] = system: BT-549
[2] = system: CAKI-1
[3] = system: COLO 205
[4] = system: DU-145
[5] = system: HCC 2998
[6] = system: HCT-15
[7] = system: HOP-62
[8] = system: HOP-92
[9] = system: IGROV-1
[10] = system: MOLT-4
[11] = system: Malme-3M
[12] = system: NCI-H226
[13] = system: NCI-H522
[14] = system: OVCAR-3
[15] = system: SF-268
[16] = system: SK-OV-3
[17] = system: SN12C
[18] = system: UO-31
[19] = system: DLD-1

Compound	GI50 [1]	GI50 [2]	GI50 [3]	GI50 [4]	GI50 [5]	GI50 [6]	GI50 [7]	GI50 [8]	GI50 [9]	GI50 [10]	GI50 [11]	GI50 [12]	GI50 [13]	GI50 [14]	GI50 [15]	GI50 [16]	GI50 [17]	GI50 [18]	GI50 [19]
O=C1c2cccc3cc([N+](=O)[O-])cc(c23)C(=O)N1O	28.6 µM (inactive)	31.7 µM (inactive)	51.1 µM (inactive)	37.5 µM (inactive)	25.2 µM (inactive)	32.7 µM	32.8 µM (inactive)	57 µM (inactive)	22.9 µM (inactive)	28.1 µM (inactive)	28.4 µM (inactive)	31 µM (inactive)	58.7 µM (inactive)	28.9 µM (inactive)	85.3 µM (inactive)	46.9 µM (inactive)	33.5 µM (inactive)	31.7 µM (inactive)	–
Cn1c(=O)c2nc(CCCCc3nc4ccccc4[nH]3)[nH]c2n(C)c1=O	> 100 µM (inactive)	50.8 µM (inactive)	> 100 µM (inactive)	> 100 µM (inactive)	> 100 µM (inactive)	> 100 µM	> 100 µM (inactive)	21.4 µM (inactive)	> 100 µM (inactive)	> 100 µM (inactive)	> 100 µM (inactive)	78.3 µM (inactive)	> 100 µM (inactive)	> 100 µM (inactive)	> 100 µM (inactive)	> 100 µM (inactive)	> 100 µM (inactive)	35.4 µM (inactive)	–
Cc1cc(O)c2c(c1)C(C1c3cccc(O)c3C(=O)c3c(O)cc(C)cc31)c1cccc(O)c1C2=O (stereo unspecified)	0.292 µM (active)	2.86 µM (inactive)	0.177 µM (active)	0.4 µM (active)	1.1 µM (active)	0.317 µM	0.432 µM (active)	0.258 µM (active)	0.378 µM (active)	0.615 µM (active)	0.329 µM (active)	0.605 µM (active)	0.417 µM (active)	0.25 µM (active)	0.311 µM (active)	0.356 µM (active)	0.322 µM (active)	0.306 µM (active)	–
CS(=O)(=O)OCCn1cnc2nc(NC(=O)c3ccccc3)[nH]c(=O)c21	–	> 100 µM (inactive)	> 100 µM (inactive)	–	–	> 100 µM	> 100 µM (inactive)	> 100 µM (inactive)	> 100 µM (inactive)	–	> 100 µM (inactive)	> 100 µM (inactive)	> 100 µM (inactive)	> 100 µM (inactive)	> 100 µM (inactive)	> 100 µM (inactive)	> 100 µM (inactive)	> 100 µM (inactive)	> 100 µM (inactive)
CC(C)OC(=O)c1ccc(CCc2cc(O)c(Br)cc2O)cc1	16.4 µM (inactive)	11.4 µM (inactive)	15.2 µM (inactive)	14.4 µM (inactive)	16.1 µM (inactive)	6.18 µM	12.3 µM (inactive)	20.9 µM (inactive)	9.2 µM (inactive)	7.94 µM (inactive)	17.2 µM (inactive)	18.7 µM (inactive)	6.24 µM (inactive)	8.11 µM (inactive)	10.1 µM (inactive)	16.6 µM (inactive)	13.4 µM (inactive)	5.52 µM (inactive)	–
COc1ccc(OC)c(-c2cc(=O)c3c(OC)c(OC)c(OC)c(OC)c3o2)c1	33.2 µM (inactive)	40.6 µM (inactive)	17.1 µM (inactive)	25.8 µM (inactive)	28.6 µM (inactive)	21.3 µM	27.6 µM (inactive)	11.7 µM (inactive)	29.9 µM (inactive)	9.44 µM (inactive)	24.3 µM (inactive)	26.2 µM (inactive)	20 µM (inactive)	23 µM (inactive)	36 µM (inactive)	22.8 µM (inactive)	27.9 µM (inactive)	15.4 µM (inactive)	–
O=C(Nc1ccc2ncccc2c1)c1cc2c(cc1Cl)Sc1nccn1S2(=O)=O	15.6 µM (inactive)	22 µM (inactive)	18.7 µM (inactive)	14.3 µM (inactive)	14.7 µM (inactive)	11 µM	16.4 µM (inactive)	27.7 µM (inactive)	12.6 µM (inactive)	18.4 µM (inactive)	16.7 µM (inactive)	18.1 µM (inactive)	8.97 µM (inactive)	21.7 µM (inactive)	18.1 µM (inactive)	33.3 µM (inactive)	17.5 µM (inactive)	18.2 µM (inactive)	–
CC1(C)OCC(C2OC(=O)C(OCc3ccccc3)=C2OCc2ccccc2)O1 (stereo unspecified)	35 µM (inactive)	45.2 µM (inactive)	22.2 µM (inactive)	81.1 µM (inactive)	36.8 µM (inactive)	30.9 µM	81.8 µM (inactive)	23 µM (inactive)	64.3 µM (inactive)	23 µM (inactive)	29.9 µM (inactive)	32.7 µM (inactive)	23.3 µM (inactive)	49.2 µM (inactive)	83.2 µM (inactive)	52.6 µM (inactive)	39.4 µM (inactive)	37.1 µM (inactive)	–
COC(=O)C1=C(OC(=O)/C(=C/c2ccc(Cl)cc2Cl)c2ccc(Cl)cc2Cl)C(C(=O)OC)[C@@]2(O)[C@@H](C(=O)OC)[C@H](C)C[C@@H]1[C@@H]2C(=O)OC (stereo partly specified)	> 100 µM (inactive)	> 100 µM (inactive)	> 100 µM (inactive)	> 100 µM (inactive)	> 100 µM (inactive)	> 100 µM	> 100 µM (inactive)	22.9 µM (inactive)	> 100 µM (inactive)	> 100 µM (inactive)	> 100 µM (inactive)	> 100 µM (inactive)	64.1 µM (inactive)	> 100 µM (inactive)	> 100 µM (inactive)	> 100 µM (inactive)	> 100 µM (inactive)	> 100 µM (inactive)	–
COC(=O)c1c(C)cccc1C1CN=NC12Cc1cc(C)c(C)cc1C2=O (stereo unspecified)	32.4 µM (inactive)	73.1 µM (inactive)	39.4 µM (inactive)	> 100 µM (inactive)	> 100 µM (inactive)	30.5 µM	> 100 µM (inactive)	30.4 µM (inactive)	> 100 µM (inactive)	33.9 µM (inactive)	57.8 µM (inactive)	47.9 µM (inactive)	19.2 µM (inactive)	62.4 µM (inactive)	66.5 µM (inactive)	55.2 µM (inactive)	75.3 µM (inactive)	31.6 µM (inactive)	–
O=C1CSC(/C=C/c2ccccc2)N1c1ccc(-n2c(-c3ccccc3)nc3ccccc3c2=O)cc1 (stereo unspecified)	> 100 µM (inactive)	> 100 µM (inactive)	> 100 µM (inactive)	> 100 µM (inactive)	99.5 µM (inactive)	86.9 µM	42.7 µM (inactive)	> 100 µM (inactive)	74.3 µM (inactive)	30.9 µM (inactive)	> 100 µM (inactive)	48.8 µM (inactive)	50.6 µM (inactive)	> 100 µM (inactive)	95.5 µM (inactive)	19.3 µM (inactive)	> 100 µM (inactive)	16.8 µM (inactive)	–
COc1cc(/C=[N+](\[O-])c2ccccc2Cl)ccc1OC(=S)S	26.9 µM (inactive)	31.7 µM (inactive)	21.8 µM (inactive)	72.1 µM (inactive)	37 µM (inactive)	33.2 µM	39.9 µM (inactive)	10.1 µM (inactive)	49.4 µM (inactive)	27 µM (inactive)	38.4 µM (inactive)	57.4 µM (inactive)	26.5 µM (inactive)	30.8 µM (inactive)	42.7 µM (inactive)	43.9 µM (inactive)	45.7 µM (inactive)	39.6 µM (inactive)	–
O=CN1CCN(C(=O)c2cc(Cl)cc(Cl)c2)C1=S	17.3 µM (inactive)	13.3 µM (inactive)	17.1 µM (inactive)	16.8 µM (inactive)	17.6 µM (inactive)	17 µM	15.2 µM (inactive)	17.9 µM (inactive)	18.5 µM (inactive)	15 µM (inactive)	3.12 µM (inactive)	14.7 µM (inactive)	3.5 µM (inactive)	14.8 µM (inactive)	16.1 µM (inactive)	17.5 µM (inactive)	15.6 µM (inactive)	–	–
CCC[C@H](C)[C@H]1NC(=O)[C@@H](NC(=O)[C@@H](CC(C)C)N(C)C(=O)C2CCCN2C(=O)[C@H](C)O)[C@@H](C)OC(=O)[C@H](CC(C)C)N(C)C(=O)[C@@H]2CCCN2C(=O)[C@H](CC(C)C)NC(=O)[C@@H](C)C(=O)[C@H](C(C)C)OC(=O)C[C@@H]1O (stereo partly specified)	< 0.0025 µM (active)	0.0162 µM (active)	< 0.0025 µM (active)	< 0.0025 µM (active)	< 0.0025 µM (active)	0.0328 µM	< 0.0025 µM (active)	< 0.0025 µM (active)	< 0.0025 µM (active)	< 0.0025 µM (active)	< 0.0025 µM (active)	< 0.0025 µM (active)	< 0.0025 µM (active)	< 0.0025 µM (active)	< 0.0025 µM (active)	< 0.0025 µM (active)	< 0.0025 µM (active)	0.0107 µM (active)	–
COc1ccc(Oc2cnn(C(Br)(Br)C(C)=O)c(=O)c2Br)cc1	17.3 µM (inactive)	10.8 µM (inactive)	13.4 µM (inactive)	19.2 µM (inactive)	16.8 µM (inactive)	16 µM	16.7 µM (inactive)	14.7 µM (inactive)	18.5 µM (inactive)	0.861 µM (active)	17.1 µM (inactive)	21.4 µM (inactive)	4.56 µM (inactive)	4.19 µM (inactive)	14.6 µM (inactive)	24.3 µM (inactive)	15 µM (inactive)	7.66 µM (inactive)	–
